Earlier results as cited in patent publication US20140329770A1, “Compositions Comprising Phytoestrogens Receptor Beta Agonists and Dietary Fibers for Chemopreventive Treatment of Sporadic Adenomatous Polyposis” (CM&D PHARMA LIMITED, priority 2011, published 2014).

Legend:
rectal ACF = conditions: 6-months intervention, subjects at increased risk for CRC

SMILES | Reduction in rectal ACF numbers compared with maltodextrins (rectal ACF) | Tumor growth of human SW480 CRC (human SW480 CRC; feeding, nu/nu mice) | Toxicity (human SW480 CRC; mouse, in vivo)
CC(C)c1c(C(=O)Nc2ccccc2)c(-c2ccccc2)c(-c2ccc(F)cc2)n1CC[C@@H](O)C[C@@H](O)CC(=O)O [atovarstastin] | did not demonstrate significant reductions | – | –
COc1cc(C2Oc3cc([C@H]4Oc5cc(O)cc(O)c5C(=O)[C@@H]4O)ccc3OC2CO)ccc1O (stereo partly shown) [silybinin] | – | suppressed | Without any apparent toxicity
CC1=C(CC(=O)O)c2cc(F)ccc2/C1=C\c1ccc([S+](C)[O-])cc1 (stereo not shown) [sulindac] | did not demonstrate significant reductions | – | –
